Where two headings read alike, the source gives them in different places.
Tests used:
HPAF-II = experiment: Cell proliferation assay (CellTiter-Glo), HPAF-II; assay type: cell-based; details: Homo sapiens, 72 h, 3 days
Protocol: (§1) The cell proliferation assays were tested in several cell lines, including HepG2,HCT116, A549, HPAF-II, CFPAC-1,HuH7, SNU398,Hep3B, and HEK293. All cell lines are from ATCC. HepG2, HPAF-II and HEK293 are cultured in Eagle's MEM media supplemented with fetal bovine serum. HCT116 is cultured in McCoy media supplemented with fetal bovine serum. Huh-7 is cultured in DMEM low glucose (1000 mg/L glucose) with 10% FBS, 1% L-Glutamate and 1% Penicillin/Streptomycin. SNU398 is cultured in RPMI with 10% FBS with 1% L-Glutamate and 1% Penicillin/Streptomycin. Hep3B is cultured in Eagle's MEM with 10% FBS, 1% L-Glutamate and 1% Penicillin/Streptomycin. A549 is cultured in RPMI media supplemented with fetal bovine serum while CFPAC-1 is cultured in IMDM media supplemented with fetal bovine serum. All media and serum are purchased from Gibco (Lifetech). All cells were grown in a temperature controlled incubator at 37° C. and 5% CO2.
(§2) Cell proliferation assay was performed using CellTiter-Glo Luminescent Cell Viability Assay (Promega) following manufacturer's instructions. The cell-line of interest was treated with compounds that were serial diluted in its respective media. Plates were incubated for 3 days at 37° C. in 5% CO2. After 3 days, an equal volume of Cell Titer Glo reagent was added. Plates were rocked on a rotator for 2 h. 100 μL of each well were transferred to a 96-well opaque plate, and luminescence emitted was measured with the Tecan Safire II.

HepG2 = experiment: Cell proliferation assay (CellTiter-Glo), HepG2; assay type: cell-based; details: Homo sapiens, HepG2, 72 h; 3 days
Protocol: as §1, §2

HCT-116 = experiment: Cell proliferation assay (CellTiter-Glo), HCT-116; assay type: cell-based; details: Homo sapiens, HCT-116, 72 h; 3 days
Protocol: as §1, §2

CFPAC-1 = experiment: Cell proliferation assay (CellTiter-Glo), CFPAC-1; assay type: cell-based; details: Homo sapiens, CFPAC-1, 72 h; 3 days
Protocol: as §1, §2

A549 = experiment: Cell proliferation assay (CellTiter-Glo), A549; assay type: cell-based; details: Homo sapiens, A549, 72 h; 3 days
Protocol: as §1, §2

SMYD3 = molecular target: T1, SMYD3 (Homo sapiens, UniProt Q9H7B4); experiment: SMYD3 biochemical assay (MTase-Glo, MAP3K2 peptide substrate)
T1 sequence (Q9H7B4 1-428): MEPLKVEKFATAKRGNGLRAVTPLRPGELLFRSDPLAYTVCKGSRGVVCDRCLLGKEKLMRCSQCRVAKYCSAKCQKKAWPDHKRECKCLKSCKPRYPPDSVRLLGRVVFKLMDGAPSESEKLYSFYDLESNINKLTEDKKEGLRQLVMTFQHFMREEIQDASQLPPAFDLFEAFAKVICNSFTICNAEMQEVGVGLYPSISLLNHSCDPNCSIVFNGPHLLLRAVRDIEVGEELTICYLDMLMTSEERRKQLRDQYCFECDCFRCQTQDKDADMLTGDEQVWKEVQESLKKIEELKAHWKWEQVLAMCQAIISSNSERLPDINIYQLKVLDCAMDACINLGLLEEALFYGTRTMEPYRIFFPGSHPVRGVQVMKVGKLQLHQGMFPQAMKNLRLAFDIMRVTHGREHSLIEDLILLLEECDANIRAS
Outline: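 Methylation of MAP3K2 peptide (10 µM final) with SAM (1.0 µM final) by SMYD3, 30 min at room temperature. SAH formed was enzymatically converted to ATP and detected as luminescence with MTase-Glo reagents; IC50 by non-linear regression.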

Hep G2 cells = experiment: Soft agar colony formation assay; assay type: cell-based, human; details: Homo sapiens, HepG2
Protocol: Hep G2 cells were purchased from ATCC. Hep G2 cells were maintained in Eagle's Minimum Essential Medium (Sigma, Cat No: #M0643) supplemented with 10% Fetal Bovine Serum (Hyclone, Cat No: SV30087.03), 2 mM L-glutamine, 100 units/mL penicillin and 100 μg/mL streptomycin (Life Technologies, Cat No: 10378-016). The soft agar assays were performed in concordance to the ETC approved method report for soft agar assay (ETC document number: RD0019). Briefly, 600 μL of 0.6% agar was added to 24-well plate (Corning, Cat No: 3738) to form the base layer. This is followed by the addition of 500 μL of 0.36% agar middle layer (containing 10′000Hep G2 cells). Lastly, 500 μL of fresh growth medium (containing the corresponding serially diluted compound) was added above the middle layer. The plates were incubated at 37° C. with 5% carbon dioxide in a humidified incubator for 1 to 2 weeks. 70 μL of thiazolyl blue tetrazolium bromide (5 mg/mL, Sigma Cat No: M5655) was added to each well and the plates were incubated at 37° C. for 2 h. Colonies were counted with GelCount® instrument (Oxford Optronix). The colony counts were plotted against compound concentrations using the Graphpad Prism software. In addition, the software was used to perform non-linear curve fitting and the calculation of IC50.

[1] = Table 1, MAP3K2 peptide as substrate, read-out: IC50
[2] = Table 2, read-out: Biochemical assay IC50
[3] = Table 3, MTase assay, MAP3K2 peptide substrate, read-out: IC50

CCCOC(=O)N1CCN(C(=O)c2ccc3c(Cl)c4c(nc3c2)CCC(CCN)C4)CC1 (stereo not drawn) [A066, Propyl 4-(7-(2-aminoethyl)-9-chloro-5,6,7,8-tetrahydroacridine-3-carbonyl)piperazine-1-carboxylate]
GI50 (HPAF-II): 11100 nM | GI50 (HepG2): 33100 nM | GI50 (HCT-116): 24800 nM | GI50 (CFPAC-1): 15400 nM | GI50 (A549): 18400 nM | IC50 (SMYD3; [1]): 46.1 nM | IC50 (SMYD3; [2]): 46.1 nM | IC50 (SMYD3; [3]): 300 nM

CCCOC(=O)N1CCN(C(=O)c2ccc3c(Cl)c4c(nc3c2)CC(c2ccccn2)CC4)C[C@H]1C (stereo partly drawn) [A074, Propyl (2R)-4-(9-chloro-6-(pyridin-2-yl)-5,6,7,8-tetrahydroacridine-3-carbonyl)-2-methylpiperazine-1-carboxylate]
GI50 (HPAF-II): 50400 nM | GI50 (HepG2): 10600 nM | GI50 (HCT-116): 11400 nM | GI50 (CFPAC-1): 36900 nM | IC50 (Hep G2 cells; Hep G2, soft agar): 710 nM | inhibition at 10 µM (Hep G2 cells; highest concentration tested (10 μM)): ~100% | GI50 (A549): 15800 nM | IC50 (SMYD3; [1]): 152 nM | IC50 (SMYD3; [2]): 152 nM | IC50 (SMYD3; [3]): 150 nM

CCCOC(=O)N1CCN(C(=O)c2ccc3c(Cl)c4c(nc3c2)CC(CCN)CC4)[C@@H](C)C1 (stereo partly drawn) [A088, Propyl (3S)-4-(6-(2-aminoethyl)-9-chloro-5,6,7,8-tetrahydroacridine-3-carbonyl)-3-methylpiperazine-1-carboxylate]
GI50 (HPAF-II): 33700 nM | GI50 (HepG2): 17000 nM | GI50 (HCT-116): 16100 nM | GI50 (CFPAC-1): 21900 nM | GI50 (A549): 28400 nM | IC50 (SMYD3; [1]): 92 nM | IC50 (SMYD3; [2]): 92 nM | IC50 (SMYD3; [3]): 90 nM

C[C@@H]1CN(C(=O)c2ccc3c(Cl)cc(-c4ccn(C)c4)nc3c2)CCN1C(=O)C[C@H]1CCC(=O)N1 [D001, (R)-5-(2((R)-4-(4-Chloro-2-(1-methyl-1H-pyrrol-3-yl)quinoline-7-carbonyl)-2-methylpiperazin-1-yl)-2-oxoethyl)pyrrolidin-2-one]
IC50 (SMYD3; [3]): 13600 nM

O=C(c1ccc2c(Cl)cc(-c3ccccc3)nc2c1)N1CCN(C(=O)c2cn(C3CC3)nn2)CC1 [D002, (4-Chloro-2-phenylquinolin-7-yl)(4-(1-cyclopropyl-1H-1,2,3-triazole-4-carbonyl)piperazin-1-yl)methanone]
IC50 (SMYD3; [3]): 4 nM

Cn1ccc(-c2cc(Cl)c3ccc(C(=O)N4CCN(C(=O)c5cn(C6CC6)nn5)CC4)cc3n2)c1 [D003, (4-Chloro-2-(1-methyl-1H-pyrrol-3-yl)quinolin-7-yl)(4-(1-cyclopropyl-1H-1,2,3-triazole-4-carbonyl)piperazin-1-yl)methanone]
IC50 (SMYD3; [3]): 25 nM

C[C@@H]1CN(C(=O)c2ccc3c(Cl)cc(-c4ccn(C)c4)nc3c2)CCN1C(=O)c1cn(C2CC2)nn1 [D004, (R)-(4-Chloro-2-(1-methyl-1H-pyrrol-3-yl)quinolin-7-yl)(4-(1-cyclopropyl-1H-1,2,3-triazole-4-carbonyl)-3-methylpiperazin-1-yl)methanone]
IC50 (SMYD3; [3]): 13 nM

C[C@@H]1CN(C(=O)c2ccc3c(Cl)cc(-c4ccccc4)nc3c2)CCN1C(=O)c1cn(C2CC2)nn1 [D005, (R)-(4-Chloro-2-phenylquinolin-7-yl)(4-(1-cyclopropyl-1H-1,2,3-triazole-4-carbonyl)-3-methylpiperazin-1-yl)methanone]
IC50 (SMYD3; [3]): 77 nM

C[C@@H]1CN(C(=O)c2ccc3c(Cl)cc(-c4ccc(C(C)(C)O)cc4)nc3c2)CCN1C(=O)c1cn(C2CC2)nn1 [D006, (R)-(4-Chloro-2-(4-(2-hydroxypropan-2-yl)phenyl)quinolin-7-yl)(4-(1-cyclopropyl-1H-1,2,3-triazole-4-carbonyl)-3-methylpiperazin-1-yl)methanone]
IC50 (SMYD3; [3]): 52 nM

Cn1cc(C(=O)N2CCN(C(=O)c3ccc4c(Cl)cc(-c5ccccc5)nc4c3)CC2)nn1 [D007, (4-Chloro-2-phenylquinolin-7-yl)(4-(1-methyl-1H-1,2,3-triazole-4-carbonyl)piperazin-1-yl)methanone]
IC50 (SMYD3; [3]): 83 nM

CC(C)(C)n1cc(C(=O)N2CCN(C(=O)c3ccc4c(Cl)cc(-c5ccccc5)nc4c3)CC2)nn1 [D008, (1-(Tert-butyl)-1H-1,2,3-triazol-4-yl)(4-(4-chloro-2-phenylquinoline-7-carbonyl)piperazin-1-yl)methanone]
IC50 (SMYD3; [3]): 450 nM

O=C(c1ccc2c(Cl)cc(-c3ccccc3)nc2c1)N1CCN(C(=O)c2cnn(C3CC3)c2)CC1 [D011, (4-Chloro-2-phenylquinolin-7-yl)(4-(1-cyclopropyl-1H-pyrazole-4-carbonyl)piperazin-1-yl)nethanone]
IC50 (SMYD3; [3]): 200 nM

CC(C)(CN)c1ccc(-c2cc(Cl)c3ccc(C(=O)N4CCN(C(=O)c5cn(C6CC6)nn5)CC4)cc3n2)cc1 [D012, (2-(4-(1-Amino-2-methylpropan-2-yl)phenyl)-4-chloroquinolin-7-yl)(4-(1-cyclopropyl-1H-1,2,3-triazole-4-carbonyl)piperazin-1-yl)nethanone]
IC50 (SMYD3; [3]): 100 nM

NC1(c2ccc(-c3cc(Cl)c4ccc(C(=O)N5CCN(C(=O)c6cn(C7CC7)nn6)CC5)cc4n3)cc2)CC1 [D013, (2-(4-(1-Aminocyclopropyl)phenyl)-4-chloroquinolin-7-yl)(4-(1-cyclopropyl-1H-1,2,3-triazole-4-carbonyl)piperazin-1-yl)methanone]
IC50 (SMYD3; [3]): 78 nM

COc1ccc(-c2cc(Cl)c3ccc(C(=O)N4CCN(C(=O)c5cn(C6CC6)nn5)CC4)cc3n2)cc1CN [D014, (2-(3-(Aminomethyl)-4-methoxyphenyl)-4-chloroquinolin-7-yl)(4-(1-cyclopropyl-1H-1,2,3-triazole-4-carbonyl)piperazin-1-yl)methanone]
IC50 (SMYD3; [3]): 69 nM

NCc1cc(-c2cc(Cl)c3ccc(C(=O)N4CCN(C(=O)c5cn(C6CC6)nn5)CC4)cc3n2)ccc1F [E019, (2-(3-(Aminomethyl)-4-fluorophenyl)-4-chloroquinolin-7-yl)(4-(1-cyclopropyl-1H-1,2,3-triazole-4-carbonyl)piperazin-1-yl)methanone]
IC50 (SMYD3; [3]): 39 nM

CN(C)Cc1cc(-c2cc(Cl)c3ccc(C(=O)N4CCN(C(=O)c5cn(C6CC6)nn5)CC4)cc3n2)ccc1F [E020, (4-Chloro-2-(3-((dimethylamino)methyl)-4-fluorophenyl)quinolin-7-yl)(4-(1-cyclopropyl-1H-1,2,3-triazole-4-carbonyl)piperazin-1-yl)methanone]
IC50 (SMYD3; [3]): 58 nM

NC(=O)C1CCN(CC(=O)Nc2ccc(Br)cc2)CC1 [X1, reference compound]
activity against SMYD3 (SMYD3): inactive | IC50 (SMYD3; Table 4, prior art compounds, read-out: IC50): > 250000 nM

Source: patent publication US20190071416A1, “COMPOUNDS FOR TREATMENT OF CANCER AND EPIGENETICS” (Agency For Science, Technology and Research, priority 2015, published 2019)
